Holding throughout (format): cell-based
In one assay the test system is M. hyorhinis ATCC 23234. Nature of the assay: Anti-mycoplasmal activity in vitro MIC. To be noted: Mesomycoplasma hyorhinis, ATCC23234, 144 h.
A further assay has as its system M. suipneumoniae MS16. The assay can be described thus: Anti-mycoplasmal activity in vitro MIC. To be noted: Mesomycoplasma hyopneumoniae, MS16, 144 h.
Assay [1] has as its system M. suipneumoniae PW/C/210. The assay can be described thus: Anti-mycoplasmal activity in vitro MIC. The conditions noted are these: Mesomycoplasma hyopneumoniae, 144 h.
The next assay has as its system M. suipneumoniae HK (2). Nature of the assay: Anti-mycoplasmal activity in vitro MIC. The conditions noted are these: Mesomycoplasma hyopneumoniae, 144 h; M. suipneumoniae HK (2); Friis broth, 0.9% agarose, 6 days 37° C.; read-out: M.I.C.
The test system of the next assay is M. suipneumoniae LABER. Nature of the assay: Anti-mycoplasmal activity in vitro MIC. The conditions noted are these: Mesomycoplasma hyopneumoniae, 144 h.
The test system of assay [2] is M. suipneumoniae J2206/183b. Nature of the assay: Anti-mycoplasmal activity in vitro MIC. The conditions noted are these: Mesomycoplasma hyopneumoniae, 144 h; M. suipneumoniae J2206/183b; Friis broth, 0.9% agarose, 6 days 37° C.; read-out: M.I.C.
The next assay has as its system M. suipneumoniae UCD 1. The assay can be described thus: Anti-mycoplasmal activity in vitro MIC. To be noted: Mesomycoplasma hyopneumoniae, UCD1, 144 h; M. suipneumoniae UCD 1; Friis broth, 0.9% agarose, 6 days 37° C.; read-out: M.I.C.
For the next assay, the system named is M. suipneumoniae Str. 11. Nature of the assay: Anti-mycoplasmal activity in vitro MIC. The conditions noted are these: Mesomycoplasma hyopneumoniae, STR.11, 144 h.
The test system of assay [3] is M. bovigenitalium ATCC 14173. The assay can be described thus: Anti-mycoplasmal activity in vitro MIC. The conditions noted are these: 144 h; M. bovigenitalium ATCC 14173; Friis broth, 0.9% agarose, 6 days 37° C.; read-out: M.I.C.
The test system of a further assay is M. bovis NCTC 10131. The assay can be described thus: microbe, parasite or virus in culture. The conditions noted are these: NCTC10131, 144 h.
A further assay has as its system M. hyorhinis ATCC 25021. The assay can be described thus: Anti-mycoplasmal activity in vitro MIC. The conditions noted are these: Mesomycoplasma hyorhinis, ATCC25021, 144 h.
A further assay relates to M. suipneumoniae NB12. The assay can be described thus: Anti-mycoplasmal activity in vitro MIC. The conditions noted are these: Mesomycoplasma hyopneumoniae, NB12, 144 h.
In assay [4] the test system is M. suipneumoniae NCTC 10110. Nature of the assay: Anti-mycoplasmal activity in vitro MIC. To be noted: Mesomycoplasma hyopneumoniae, NCTC10110, 144 h; M. suipneumoniae NCTC 10110; Friis broth, 0.9% agarose, 6 days 37° C.; read-out: M.I.C.
In the next assay the test system is M. dispar NCTC 10125. The assay can be described thus: Anti-mycoplasmal activity in vitro MIC. To be noted: 144 h.
The subject of another assay is M. pneumoniae ATCC 15492. The assay can be described thus: Anti-mycoplasmal activity in vitro MIC. The conditions noted are these: Mycoplasmoides pneumoniae, ATCC15492, 144 h.
The test system of another assay is M. gallisepticum S6. Nature of the assay: Anti-mycoplasmal activity in vitro MIC. To be noted: Mycoplasmoides gallisepticum, 144 h; M. gallisepticum S6; Friis broth, 0.9% agarose, 6 days 37° C.; read-out: M.I.C.
The subject of assay [5] is M. hyosynoviae ATCC 25591. Nature of the assay: Anti-mycoplasmal activity in vitro MIC. To be noted: 144 h.
The next assay concerns M. suipneumoniae TAM 6N. Nature of the assay: Anti-mycoplasmal activity in vitro MIC. To be noted: Mesomycoplasma hyopneumoniae, TAM6N, 144 h; M. suipneumoniae TAM 6N; Friis broth, 0.9% agarose, 6 days 37° C.; read-out: M.I.C.
A further assay relates to M. suipneumoniae JF 435. Nature of the assay: Anti-mycoplasmal activity in vitro MIC. The conditions noted are these: Mesomycoplasma hyopneumoniae, JF435, 144 h; M. suipneumoniae JF 435; Friis broth, 0.9% agarose, 6 days 37° C.; read-out: M.I.C.
For assay [6], the system named is M. suipneumoniae ATCC 25095. The assay can be described thus: Anti-mycoplasmal activity in vitro MIC. To be noted: Mesomycoplasma hyopneumoniae, ATCC25095, 144 h.

Each structure is given as a SMILES string. Values after ≈ are worked out from the molar mass of the structure shown. A value given as a limit tells only on which side of the number the result lay.

Take `C/C(=C\C(=O)OCc1cccc(C=NO)c1)C[C@@H]1OC[C@H](C[C@@H]2O[C@H]2[C@@H](C)[C@H](C)O)[C@@H](O)[C@H]1O` [Example 8, m-Hydroxyiminomethylbenzyl monate A]: the MIC amounted to 0.25 mg/L (≈ 0.524 µM) with M. hyorhinis ATCC 23234; 0.25 mg/L (≈ 0.524 µM) in the assay on M. suipneumoniae MS16; 0.25 mg/L (≈ 0.524 µM) in [1]; 0.5 mg/L (≈ 1.05 µM) in the assay with M. suipneumoniae HK (2); 0.25 mg/L (≈ 0.524 µM) with M. suipneumoniae LABER; 0.5 mg/L (≈ 1.05 µM) in assay [2]. Further, the MIC in the assay on M. suipneumoniae UCD 1 was 0.5 mg/L (≈ 1.05 µM); with M. suipneumoniae Str. 11, 0.25 mg/L (≈ 0.524 µM); in [3], 0.025 mg/L (≈ 0.0524 µM); against M. bovis NCTC 10131, ≤ 0.01 mg/L; against M. hyorhinis ATCC 25021 it was 0.25 mg/L (≈ 0.524 µM); in the assay with M. suipneumoniae NB12, 0.25 mg/L (≈ 0.524 µM). Further, the MIC is 0.5 mg/L (≈ 1.05 µM) in assay [4]; 0.1 mg/L (≈ 0.209 µM) in the assay with M. dispar NCTC 10125; 2.5 mg/L (≈ 5.24 µM) against M. pneumoniae ATCC 15492; 5 mg/L (≈ 10.5 µM) in the assay with M. gallisepticum S6; 0.25 mg/L (≈ 0.524 µM) in [5]; 0.5 mg/L (≈ 1.05 µM) with M. suipneumoniae TAM 6N. The MIC with M. suipneumoniae JF 435 turned out to be 0.5 mg/L (≈ 1.05 µM); in assay [6], 0.25 mg/L (≈ 0.524 µM).

Source of the values: US4362743A, “Antibacterial monic acid esters” (Beecham Group Limited, priority 1980, dated 1982).
